Among the data in ChEMBL document CHEMBL5291721, “A preclinical secondary pharmacology resource illuminates target-adverse drug reaction associations of marketed drugs” (Nat Commun, 2023) are AC50 values, retold here.

Structures are written as SMILES. Where only a bound is given, the exact number is not on record here.

Experiment [1] addresses T1, Prostaglandin G/H synthase 1 (Rattus norvegicus, UniProt Q63921).
T1 sequence (Q63921 whole entry): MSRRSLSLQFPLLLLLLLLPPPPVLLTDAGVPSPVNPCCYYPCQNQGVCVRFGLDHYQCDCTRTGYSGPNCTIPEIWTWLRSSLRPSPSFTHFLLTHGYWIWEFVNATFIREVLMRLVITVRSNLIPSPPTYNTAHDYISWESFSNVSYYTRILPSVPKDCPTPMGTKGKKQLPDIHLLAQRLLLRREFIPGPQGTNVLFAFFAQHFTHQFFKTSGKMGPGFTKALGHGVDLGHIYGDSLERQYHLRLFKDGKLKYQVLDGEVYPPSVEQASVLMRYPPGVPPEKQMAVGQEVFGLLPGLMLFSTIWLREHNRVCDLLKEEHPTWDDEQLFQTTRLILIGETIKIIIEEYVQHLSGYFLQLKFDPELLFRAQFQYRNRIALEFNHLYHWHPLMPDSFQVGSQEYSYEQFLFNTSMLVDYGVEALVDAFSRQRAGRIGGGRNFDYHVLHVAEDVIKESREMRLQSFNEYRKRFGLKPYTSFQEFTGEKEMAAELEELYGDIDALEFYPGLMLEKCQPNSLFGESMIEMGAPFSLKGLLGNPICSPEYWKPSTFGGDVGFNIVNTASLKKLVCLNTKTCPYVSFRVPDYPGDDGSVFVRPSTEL
It counts as functional.

The target of experiment [2] is 5-hydroxytryptamine receptor 2B (Homo sapiens, UniProt P41595). It counts as functional, cell-based.
Experiment [3] addresses T2, Neuropeptide Y receptor type 1 (Homo sapiens, UniProt P25929).
T2 sequence (P25929 whole entry): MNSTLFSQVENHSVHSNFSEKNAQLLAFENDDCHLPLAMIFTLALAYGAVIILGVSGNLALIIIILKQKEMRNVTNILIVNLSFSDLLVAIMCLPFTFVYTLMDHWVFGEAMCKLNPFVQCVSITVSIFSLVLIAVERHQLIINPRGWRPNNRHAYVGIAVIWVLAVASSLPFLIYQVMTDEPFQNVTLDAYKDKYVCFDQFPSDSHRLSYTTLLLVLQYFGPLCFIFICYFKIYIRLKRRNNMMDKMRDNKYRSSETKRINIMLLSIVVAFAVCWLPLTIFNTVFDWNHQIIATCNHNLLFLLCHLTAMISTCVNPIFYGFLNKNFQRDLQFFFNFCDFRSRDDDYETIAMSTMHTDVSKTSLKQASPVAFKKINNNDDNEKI

The target in experiment [4] is Voltage-dependent L-type calcium channel subunit alpha-1C (Rattus norvegicus, UniProt P22002). It counts as functional.
Experiment [5] concerns the target T3, Muscarinic acetylcholine receptor M2 (Homo sapiens, UniProt P08172).
T3 sequence (P08172 whole entry): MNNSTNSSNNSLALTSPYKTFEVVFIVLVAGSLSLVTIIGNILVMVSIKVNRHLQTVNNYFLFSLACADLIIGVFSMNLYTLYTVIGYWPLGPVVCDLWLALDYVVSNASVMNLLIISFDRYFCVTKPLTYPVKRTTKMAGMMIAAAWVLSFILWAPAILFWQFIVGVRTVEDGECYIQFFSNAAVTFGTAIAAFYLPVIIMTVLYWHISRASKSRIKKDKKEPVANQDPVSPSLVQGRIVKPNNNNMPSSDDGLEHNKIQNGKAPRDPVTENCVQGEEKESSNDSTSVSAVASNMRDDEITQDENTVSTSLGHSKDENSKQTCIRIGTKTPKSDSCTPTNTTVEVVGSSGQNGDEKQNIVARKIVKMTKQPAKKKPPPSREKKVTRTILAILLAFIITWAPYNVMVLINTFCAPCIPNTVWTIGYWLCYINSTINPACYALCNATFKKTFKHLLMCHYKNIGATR
It counts as functional, cell-based.

For experiment [6], the target named is Kappa-type opioid receptor (Homo sapiens, UniProt P41145).
The target of experiment [7] is T4, 5-hydroxytryptamine receptor 3A (Homo sapiens, UniProt P46098).
T4 sequence (P46098 whole entry): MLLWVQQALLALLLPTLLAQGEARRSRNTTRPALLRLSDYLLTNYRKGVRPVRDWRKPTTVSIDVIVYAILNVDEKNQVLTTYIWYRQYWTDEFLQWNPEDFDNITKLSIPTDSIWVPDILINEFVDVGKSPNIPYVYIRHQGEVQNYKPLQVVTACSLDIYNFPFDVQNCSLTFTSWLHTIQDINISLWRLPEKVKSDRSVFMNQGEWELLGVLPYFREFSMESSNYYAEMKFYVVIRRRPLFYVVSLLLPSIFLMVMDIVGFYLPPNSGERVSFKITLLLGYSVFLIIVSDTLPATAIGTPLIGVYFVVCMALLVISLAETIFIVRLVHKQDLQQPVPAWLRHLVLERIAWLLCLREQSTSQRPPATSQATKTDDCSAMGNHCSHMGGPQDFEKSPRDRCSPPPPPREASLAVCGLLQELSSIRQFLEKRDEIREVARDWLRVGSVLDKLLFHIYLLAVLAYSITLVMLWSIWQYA
It counts as functional.

Experiment [8] concerns the target cGMP-inhibited 3',5'-cyclic phosphodiesterase 3A (Homo sapiens, UniProt Q14432). It counts as functional.
The target of experiment [9] is T5, 5-hydroxytryptamine receptor 1A (Homo sapiens, UniProt P08908).
T5 sequence (P08908 whole entry): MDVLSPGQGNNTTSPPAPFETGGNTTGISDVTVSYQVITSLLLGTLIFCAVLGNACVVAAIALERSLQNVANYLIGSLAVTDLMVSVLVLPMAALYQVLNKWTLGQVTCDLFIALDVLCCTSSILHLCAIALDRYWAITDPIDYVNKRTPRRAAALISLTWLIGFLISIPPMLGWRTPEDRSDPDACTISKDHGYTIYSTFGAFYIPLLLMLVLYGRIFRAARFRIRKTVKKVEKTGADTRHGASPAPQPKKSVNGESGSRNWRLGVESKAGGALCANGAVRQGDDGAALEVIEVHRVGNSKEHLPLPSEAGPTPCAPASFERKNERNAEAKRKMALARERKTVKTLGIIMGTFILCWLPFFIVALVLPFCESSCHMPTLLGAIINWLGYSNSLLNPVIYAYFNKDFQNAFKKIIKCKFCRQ
It counts as functional, cell-based.

In experiment [10] the target is Sodium-dependent noradrenaline transporter (Homo sapiens, UniProt P23975).
Note: assay procedure not described here.

Sequence of Sodium-dependent noradrenaline transporter (P23975 whole entry): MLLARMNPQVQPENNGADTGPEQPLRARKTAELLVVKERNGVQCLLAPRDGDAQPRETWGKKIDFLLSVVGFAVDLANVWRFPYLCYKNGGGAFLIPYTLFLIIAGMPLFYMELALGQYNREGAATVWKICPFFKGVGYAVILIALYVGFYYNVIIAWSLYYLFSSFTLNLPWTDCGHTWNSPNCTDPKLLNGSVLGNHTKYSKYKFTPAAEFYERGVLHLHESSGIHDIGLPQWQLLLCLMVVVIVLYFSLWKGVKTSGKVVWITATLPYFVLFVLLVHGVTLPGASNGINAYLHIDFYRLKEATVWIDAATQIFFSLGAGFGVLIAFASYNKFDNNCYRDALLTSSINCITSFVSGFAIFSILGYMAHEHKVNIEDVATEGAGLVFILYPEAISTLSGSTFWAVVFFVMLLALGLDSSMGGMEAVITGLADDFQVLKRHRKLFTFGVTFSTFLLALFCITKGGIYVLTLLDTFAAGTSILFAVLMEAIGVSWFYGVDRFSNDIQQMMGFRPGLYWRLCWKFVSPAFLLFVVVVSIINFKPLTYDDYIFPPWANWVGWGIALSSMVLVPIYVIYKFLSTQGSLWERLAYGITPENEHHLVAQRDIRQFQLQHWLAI
Sequence of Voltage-dependent L-type calcium channel subunit alpha-1C (P22002 whole entry): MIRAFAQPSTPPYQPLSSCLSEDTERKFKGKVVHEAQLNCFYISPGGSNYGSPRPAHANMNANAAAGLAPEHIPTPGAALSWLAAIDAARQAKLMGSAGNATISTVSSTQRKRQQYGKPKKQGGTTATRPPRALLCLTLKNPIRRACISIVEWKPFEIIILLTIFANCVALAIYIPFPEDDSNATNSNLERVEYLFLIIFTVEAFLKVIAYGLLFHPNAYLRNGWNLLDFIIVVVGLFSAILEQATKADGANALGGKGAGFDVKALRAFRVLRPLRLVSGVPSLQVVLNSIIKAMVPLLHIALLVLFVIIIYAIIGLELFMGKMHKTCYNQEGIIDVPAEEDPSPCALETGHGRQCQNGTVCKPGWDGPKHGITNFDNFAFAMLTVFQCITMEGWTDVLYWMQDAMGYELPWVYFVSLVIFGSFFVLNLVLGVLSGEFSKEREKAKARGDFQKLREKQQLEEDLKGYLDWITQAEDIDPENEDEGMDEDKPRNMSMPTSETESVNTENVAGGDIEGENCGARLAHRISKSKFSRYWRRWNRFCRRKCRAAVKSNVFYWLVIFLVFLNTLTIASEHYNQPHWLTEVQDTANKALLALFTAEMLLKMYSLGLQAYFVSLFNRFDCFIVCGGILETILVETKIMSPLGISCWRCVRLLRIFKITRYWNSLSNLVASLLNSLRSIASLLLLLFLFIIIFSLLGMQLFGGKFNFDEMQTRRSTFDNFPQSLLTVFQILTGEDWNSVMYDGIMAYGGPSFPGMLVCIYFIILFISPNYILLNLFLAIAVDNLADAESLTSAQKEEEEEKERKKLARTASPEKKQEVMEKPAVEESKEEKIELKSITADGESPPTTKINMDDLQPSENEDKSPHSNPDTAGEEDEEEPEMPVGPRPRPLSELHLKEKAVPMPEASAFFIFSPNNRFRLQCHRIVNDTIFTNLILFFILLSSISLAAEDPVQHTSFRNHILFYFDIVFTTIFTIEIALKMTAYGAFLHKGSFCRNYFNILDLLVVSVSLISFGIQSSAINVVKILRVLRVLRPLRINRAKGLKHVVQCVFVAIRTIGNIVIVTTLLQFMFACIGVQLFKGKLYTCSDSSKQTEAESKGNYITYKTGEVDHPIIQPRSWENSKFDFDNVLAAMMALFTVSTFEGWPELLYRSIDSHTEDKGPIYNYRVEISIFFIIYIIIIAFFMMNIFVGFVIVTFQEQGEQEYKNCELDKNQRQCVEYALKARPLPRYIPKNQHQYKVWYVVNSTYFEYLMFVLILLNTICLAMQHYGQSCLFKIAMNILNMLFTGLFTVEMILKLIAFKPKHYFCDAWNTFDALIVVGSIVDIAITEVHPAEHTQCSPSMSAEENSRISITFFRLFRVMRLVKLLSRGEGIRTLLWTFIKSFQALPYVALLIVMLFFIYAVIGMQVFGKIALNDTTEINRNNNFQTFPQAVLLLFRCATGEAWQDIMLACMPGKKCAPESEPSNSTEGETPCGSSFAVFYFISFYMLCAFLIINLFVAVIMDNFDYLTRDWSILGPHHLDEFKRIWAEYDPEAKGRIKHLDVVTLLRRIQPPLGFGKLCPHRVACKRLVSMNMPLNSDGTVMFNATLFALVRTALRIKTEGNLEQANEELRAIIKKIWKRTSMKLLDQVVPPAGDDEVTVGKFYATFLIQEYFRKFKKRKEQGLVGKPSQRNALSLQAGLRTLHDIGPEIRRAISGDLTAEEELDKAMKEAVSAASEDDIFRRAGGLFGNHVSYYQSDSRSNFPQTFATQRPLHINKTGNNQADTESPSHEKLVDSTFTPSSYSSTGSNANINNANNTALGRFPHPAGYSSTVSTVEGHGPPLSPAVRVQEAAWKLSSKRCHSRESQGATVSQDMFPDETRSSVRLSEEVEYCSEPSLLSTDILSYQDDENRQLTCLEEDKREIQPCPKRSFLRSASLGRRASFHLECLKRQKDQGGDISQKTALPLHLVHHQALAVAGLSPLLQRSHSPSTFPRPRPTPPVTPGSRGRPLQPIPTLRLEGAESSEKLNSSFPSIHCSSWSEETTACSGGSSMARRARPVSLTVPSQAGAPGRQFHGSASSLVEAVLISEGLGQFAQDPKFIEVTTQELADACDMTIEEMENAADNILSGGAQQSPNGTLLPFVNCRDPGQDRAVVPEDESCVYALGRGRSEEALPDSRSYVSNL
Sequence of 5-hydroxytryptamine receptor 2B (P41595 whole entry): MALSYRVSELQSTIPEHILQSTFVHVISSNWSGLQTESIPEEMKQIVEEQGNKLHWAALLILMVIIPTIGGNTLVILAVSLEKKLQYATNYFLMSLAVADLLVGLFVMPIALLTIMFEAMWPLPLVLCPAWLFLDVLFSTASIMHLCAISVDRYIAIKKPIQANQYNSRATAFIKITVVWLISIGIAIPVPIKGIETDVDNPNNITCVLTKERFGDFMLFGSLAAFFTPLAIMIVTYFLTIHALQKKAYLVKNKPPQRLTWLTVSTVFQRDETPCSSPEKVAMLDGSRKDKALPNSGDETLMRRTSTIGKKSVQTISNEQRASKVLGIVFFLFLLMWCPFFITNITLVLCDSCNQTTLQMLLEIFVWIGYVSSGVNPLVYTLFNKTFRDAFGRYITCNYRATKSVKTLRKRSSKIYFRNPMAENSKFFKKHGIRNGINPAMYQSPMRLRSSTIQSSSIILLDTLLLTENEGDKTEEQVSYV
Sequence of cGMP-inhibited 3',5'-cyclic phosphodiesterase 3A (Q14432 whole entry): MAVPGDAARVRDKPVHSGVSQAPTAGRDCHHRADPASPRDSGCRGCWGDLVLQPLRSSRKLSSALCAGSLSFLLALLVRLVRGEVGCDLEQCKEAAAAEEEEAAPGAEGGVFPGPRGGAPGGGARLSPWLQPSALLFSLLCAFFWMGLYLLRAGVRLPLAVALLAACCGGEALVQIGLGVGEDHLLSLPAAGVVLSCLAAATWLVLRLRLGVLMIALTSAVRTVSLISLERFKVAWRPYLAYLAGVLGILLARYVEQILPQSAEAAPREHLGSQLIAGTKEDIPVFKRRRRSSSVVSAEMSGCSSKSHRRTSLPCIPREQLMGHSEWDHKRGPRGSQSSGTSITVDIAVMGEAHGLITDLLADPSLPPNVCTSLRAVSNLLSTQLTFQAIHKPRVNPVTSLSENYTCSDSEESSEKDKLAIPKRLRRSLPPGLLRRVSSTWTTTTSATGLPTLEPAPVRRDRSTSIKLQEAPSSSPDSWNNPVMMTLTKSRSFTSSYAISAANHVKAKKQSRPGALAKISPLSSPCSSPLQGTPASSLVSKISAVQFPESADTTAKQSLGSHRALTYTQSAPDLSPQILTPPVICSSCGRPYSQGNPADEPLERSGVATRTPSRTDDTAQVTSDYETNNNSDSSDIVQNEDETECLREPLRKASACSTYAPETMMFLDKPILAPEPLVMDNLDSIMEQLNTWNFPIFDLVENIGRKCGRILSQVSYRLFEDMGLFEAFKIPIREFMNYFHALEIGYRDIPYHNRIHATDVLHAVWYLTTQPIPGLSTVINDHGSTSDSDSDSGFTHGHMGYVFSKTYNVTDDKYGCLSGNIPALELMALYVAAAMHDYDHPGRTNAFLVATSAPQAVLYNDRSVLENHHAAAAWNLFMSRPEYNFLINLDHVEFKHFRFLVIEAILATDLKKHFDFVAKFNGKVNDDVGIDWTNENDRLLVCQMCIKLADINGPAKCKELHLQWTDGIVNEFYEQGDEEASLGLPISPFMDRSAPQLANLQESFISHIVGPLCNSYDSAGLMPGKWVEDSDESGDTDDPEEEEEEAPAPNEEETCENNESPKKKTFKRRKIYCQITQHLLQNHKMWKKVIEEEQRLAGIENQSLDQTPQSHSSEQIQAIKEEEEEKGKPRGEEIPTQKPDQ
Sequence of Kappa-type opioid receptor (P41145 whole entry): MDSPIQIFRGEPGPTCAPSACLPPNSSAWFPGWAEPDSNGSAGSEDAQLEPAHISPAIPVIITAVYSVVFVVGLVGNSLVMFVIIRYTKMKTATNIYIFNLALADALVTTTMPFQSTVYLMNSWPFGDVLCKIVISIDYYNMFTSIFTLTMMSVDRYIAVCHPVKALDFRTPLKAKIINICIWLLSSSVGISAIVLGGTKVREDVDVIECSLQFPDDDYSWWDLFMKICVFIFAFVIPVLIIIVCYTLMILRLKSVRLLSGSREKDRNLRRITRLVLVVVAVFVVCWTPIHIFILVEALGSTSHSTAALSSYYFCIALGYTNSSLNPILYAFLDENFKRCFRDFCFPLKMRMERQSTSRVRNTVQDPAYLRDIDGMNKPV

The AC50 is the concentration at which the activity in the assay is half-maximal. Turning to `NS(=O)(=O)c1cc2c(cc1C(F)(F)F)NC(Cc1ccccc1)NS2(=O)=O` (stereo not given) [BENDROFLUMETHIAZIDE], the AC50 in experiment [1], in [2], in [3], in [4], in experiment [5] and in experiment [6] was over 10 µM throughout. Besides, the AC50 in [7] was over 30 µM; in experiment [8] it was over 30 µM; in [9] it was over 10 µM; in [10] it was over 30 µM.

Turning to `O=C(CCCN1CCC(n2c(O)nc3ccccc32)CC1)c1ccc(F)cc1` [BENPERIDOL], the AC50 in experiment [1] is over 30 µM; in experiment [2], 6.59 µM; in [3] it was over 30 µM; in experiment [4] it was over 30 µM; in experiment [5], 2.64 µM; in [6], 1.15 µM. Also, the AC50 in [7] was over 30 µM; in experiment [8], over 30 µM; in experiment [9] it was 0.166 µM; in [10], 12 µM.

Consider `CCC(=O)OCC(=O)[C@@]1(OC(=O)CC)[C@@H](C)C[C@H]2[C@@H]3CCC4=CC(=O)C=C[C@]4(C)[C@@]3(F)[C@@H](O)C[C@@]21C` [BETAMETHASONE DIPROPIONATE], for which the AC50 in experiment [1] was over 10 µM; in [2] it was over 30 µM; in experiment [3], over 30 µM; in experiment [4], over 30 µM; in experiment [5] it was over 30 µM; in experiment [6] it was over 30 µM. The AC50 in experiment [7], in experiment [8], in experiment [9] and in [10] was over 30 µM each time.

In the case of `COc1cc(OC)c(C(=O)CCCN2CCCC2)c(OC)c1` [BUFLOMEDIL], the AC50 in experiment [1] is over 30 µM; in [2] it was over 30 µM; in experiment [3], over 30 µM; in [4] it was over 30 µM; in [5], over 30 µM; in [6], 4.3 µM. The AC50 in [7] is over 30 µM; in experiment [8], over 30 µM; in [9], 29 µM; in experiment [10] it was over 30 µM.

With `CCOC(=O)NNc1ccc(N(CC)CC(C)O)nn1` (stereo not given) [CADRALAZINE], the half-maximal activity concentration (AC50) in experiment [1] was 0.5 µM; in [2] it was over 30 µM; in experiment [3] it was over 30 µM; in [4], over 30 µM; in experiment [5], over 30 µM; in [6], over 30 µM. For the same molecule, the AC50 in experiment [7] was over 30 µM; in experiment [8] it was over 30 µM; in [9], 27 µM; in experiment [10] it was over 30 µM.

As for `CCCC(C)(COC(N)=O)COC(=O)NC(C)C` (stereo not given) [CARISOPRODOL], the AC50 was over 30 µM in experiment [1]; over 10 µM in experiment [2]; over 30 µM in experiment [3]; over 10 µM in [4]; over 10 µM in experiment [5]; over 10 µM in [6]. Also, the AC50 in experiment [7] was over 30 µM; in experiment [8], over 30 µM; in experiment [9], over 10 µM; in [10], over 10 µM.

For `CCCCCCNC(=O)n1cc(F)c(=O)[nH]c1=O` [CARMOFUR], the AC50 in [1], in experiment [2], in [3], in experiment [4], in experiment [5] and in experiment [6] was over 30 µM in each case. Also, the AC50 in experiment [7], in [8], in experiment [9] and in experiment [10] was over 30 µM throughout.

Turning to `CC(C)(C)NCC(O)c1cc(Cl)c(N)c(Cl)c1` (stereo not given) [CLENBUTEROL], the AC50 was over 30 µM in [1]; over 30 µM in [2]; over 30 µM in experiment [3]; over 30 µM in experiment [4]; over 30 µM in experiment [5]; 28 µM in experiment [6]. The AC50 in [7] was over 30 µM; in [8], over 30 µM; in experiment [9], over 30 µM; in experiment [10], 27.9 µM.

For the molecule `N[C@H](Cc1cc(I)c(Oc2cc(I)c(O)c(I)c2)c(I)c1)C(=O)O` [DEXTROTHYROXINE], the AC50 is over 30 µM in experiment [1]; 26 µM in experiment [2]; over 30 µM in experiment [3]; over 10 µM in [4]; over 10 µM in [5]; over 10 µM in experiment [6]. Moreover, the AC50 in experiment [7] was over 30 µM; in [8], over 10 µM; in experiment [9], 8.2 µM; in experiment [10], over 30 µM.

Turning to `COC(=O)N[C@@H](C)CNc1nccc(-c2cn(C(C)C)nc2-c2cc(Cl)cc(NS(C)(=O)=O)c2F)n1` [ENCORAFENIB], the AC50 in experiment [1] is over 30 µM; in [2], 28 µM; in experiment [3] it was over 30 µM; in experiment [4] it was over 30 µM; in [5] it was over 30 µM; in experiment [6], 13.7 µM. The AC50 in experiment [7] is over 30 µM; in [8], 25 µM; in experiment [9], over 30 µM; in [10], over 30 µM.

As for `Clc1ccc2c(c1)C(c1ccccc1)=NCc1nncn1-2` [ESTAZOLAM], the AC50 in [1] was over 30 µM; in experiment [2], over 10 µM; in experiment [3] it was over 30 µM; in [4], over 10 µM; in experiment [5] it was over 10 µM; in [6] it was 20.1 µM. In addition, the AC50 is over 30 µM in [7], over 30 µM in experiment [8], over 10 µM in experiment [9] and over 30 µM in experiment [10].

As to `CC(=O)OCC(CCn1cnc2cnc(N)nc21)COC(C)=O` [FAMCICLOVIR], the AC50 is over 30 µM in [1]; over 10 µM in experiment [2]; over 30 µM in [3]; over 10 µM in experiment [4]; over 10 µM in [5]; over 10 µM in [6]. Moreover, the concentration at half-maximal activity (AC50) in experiment [7] was over 30 µM; in [8] it was over 30 µM; in experiment [9] it was over 10 µM; in experiment [10], over 10 µM.
